From ChEMBL document CHEMBL4602617, “Discovery and optimization of heteroaryl piperazines as potent and selective PI3Kδ inhibitors” (Bioorg Med Chem Lett, 2020) come the findings set out here.

The target in data set [1] is T1, Phosphatidylinositol 4,5-bisphosphate 3-kinase catalytic subunit delta isoform (Homo sapiens, UniProt O00329).
T1 sequence (O00329 whole entry): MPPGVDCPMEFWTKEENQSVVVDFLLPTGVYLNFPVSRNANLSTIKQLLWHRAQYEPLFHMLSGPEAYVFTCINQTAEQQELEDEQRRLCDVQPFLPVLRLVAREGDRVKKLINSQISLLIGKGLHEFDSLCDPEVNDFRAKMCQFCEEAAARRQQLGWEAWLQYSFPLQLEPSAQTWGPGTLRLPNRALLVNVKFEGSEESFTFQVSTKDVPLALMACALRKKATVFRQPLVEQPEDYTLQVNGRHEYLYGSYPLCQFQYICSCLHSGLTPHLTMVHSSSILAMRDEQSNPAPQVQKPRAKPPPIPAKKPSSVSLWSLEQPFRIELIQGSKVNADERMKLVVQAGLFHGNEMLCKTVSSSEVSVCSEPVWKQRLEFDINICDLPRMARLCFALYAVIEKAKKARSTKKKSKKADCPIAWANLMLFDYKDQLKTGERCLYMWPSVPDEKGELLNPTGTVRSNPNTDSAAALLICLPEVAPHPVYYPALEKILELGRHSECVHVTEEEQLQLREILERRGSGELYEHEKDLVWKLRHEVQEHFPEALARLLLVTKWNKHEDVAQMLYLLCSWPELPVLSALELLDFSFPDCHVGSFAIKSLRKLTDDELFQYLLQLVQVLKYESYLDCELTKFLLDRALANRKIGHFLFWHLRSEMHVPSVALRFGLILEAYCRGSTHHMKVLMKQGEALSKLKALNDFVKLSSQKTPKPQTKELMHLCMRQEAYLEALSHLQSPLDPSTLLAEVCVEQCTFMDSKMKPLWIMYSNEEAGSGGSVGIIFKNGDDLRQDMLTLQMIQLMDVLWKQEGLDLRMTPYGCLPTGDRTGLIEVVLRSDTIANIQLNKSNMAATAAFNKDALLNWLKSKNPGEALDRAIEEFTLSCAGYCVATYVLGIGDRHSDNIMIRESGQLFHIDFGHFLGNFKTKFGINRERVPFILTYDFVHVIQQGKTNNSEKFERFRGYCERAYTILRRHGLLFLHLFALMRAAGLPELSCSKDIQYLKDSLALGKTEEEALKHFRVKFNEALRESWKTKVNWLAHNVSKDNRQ
Description: Inhibition of PI3K delta in human whole blood assessed as inhibition of anti-IgE-stimulated CysLt release in basophils preincubated for 30 mins followed by anti-IgE stimulation and measured after 20 mins. Type of data set: tissue-based.

For data set [2], the species on record is Homo sapiens. Nature of the data set: Selectivity index, ratio IC50 for inhibition of recombinant human full-length N-terminal His6-tagged p110beta/untagged full-length p85alpha expressed in baculovirus infected Sf21 cells to ratio IC50 for inhibition of recombinant human full-length N-terminal GST-tagged p110delta/untagged full-length p85alpha expressed in baculovirus infected Sf21 cells.

Data set [3] can be described thus: Clearance in rat liver microsomes. Type of data set: ADME, Microsome. As to conditions: read-out: CLH.
For data set [4], the species on record is Homo sapiens. Description: Selectivity index, ratio IC50 for inhibition of recombinant human full-length N-terminal His6-tagged p110alpha/untagged full-length p85alpha expressed in baculovirus infected Sf21 cells to ratio IC50 for inhibition of recombinant human full-length N-terminal GST-tagged p110delta/untagged full-length p85alpha expressed in baculovirus infected Sf21 cells.

A short description of data set [5]: Distribution coefficient, logD of compound by HPLC analysis. Type of data set: physicochemical. As to conditions: octanol/water.
The species entered for data set [6] is Homo sapiens. Nature of the data set: Selectivity index, ratio IC50 for inhibition of recombinant human N-terminal His6-tagged full-length p120gamma expressed in Sf21 insect cells to ratio IC50 for inhibition of recombinant human full-length N-terminal GST-tagged p110delta/untagged full-length p85alpha expressed in baculovirus infected Sf21 cells.
Data set [7] can be described thus: Clearance in human liver microsomes. Type of data set: ADME, Microsome. The conditions noted are these: read-out: CLH.
Data set [8] concerns the target PI3-kinase p110-delta/p85-alpha (Homo sapiens, UniProt O00329). Nature of the data set: Inhibition of recombinant human full-length N-terminal GST-tagged p110delta/untagged full-length p85alpha expressed in baculovirus infected Sf21 cells using PIP2 as substrate preincubated for 15 mins followed by substrate addition and measured after 1 hr by HTRF assay.
Data set [9] can be described thus: Intrinsic clearance in rat hepatocytes. Type of data set: ADME, cell-based, Hepatocyte. As to conditions: read-out: CLH.
Data set [10] can be described thus: Volume of drug distribution in Wistar Han rat at 0.05 mg/kg, iv administered as cassette dose. Type of data set: ADME, organism-based. As to conditions: in vivo.
Data set [11] can be described thus: Half life in Wistar Han rat at 0.05 mg/kg, iv administered as cassette dose. The format is ADME, organism-based. As to conditions: in vivo.
The nature of data set [12]: Clearance in Wistar Han rat plasma at 0.05 mg/kg, iv administered as cassette dose. The format is ADME, organism-based.
Data set [13] in a line: Intrinsic clearance in human hepatocytes. Type of data set: ADME, cell-based, Hepatocyte. The conditions noted are these: read-out: CLH.
Data set [14] can be described thus: Unbound clearance in Wistar Han rat at 0.05 mg/kg, iv administered as cassette dose. The format is ADME, organism-based. As to conditions: in vivo.
Data set [15] can be described thus: Protein binding in Wistar Han rat plasma at 0.05 mg/kg, iv administered as cassette dose. Type of data set: ADME, organism-based. The conditions noted are these: read-out: PPB (converted).

PI3-kinase p110-delta/p85-alpha, sequence (P27986 whole entry, one chain of several): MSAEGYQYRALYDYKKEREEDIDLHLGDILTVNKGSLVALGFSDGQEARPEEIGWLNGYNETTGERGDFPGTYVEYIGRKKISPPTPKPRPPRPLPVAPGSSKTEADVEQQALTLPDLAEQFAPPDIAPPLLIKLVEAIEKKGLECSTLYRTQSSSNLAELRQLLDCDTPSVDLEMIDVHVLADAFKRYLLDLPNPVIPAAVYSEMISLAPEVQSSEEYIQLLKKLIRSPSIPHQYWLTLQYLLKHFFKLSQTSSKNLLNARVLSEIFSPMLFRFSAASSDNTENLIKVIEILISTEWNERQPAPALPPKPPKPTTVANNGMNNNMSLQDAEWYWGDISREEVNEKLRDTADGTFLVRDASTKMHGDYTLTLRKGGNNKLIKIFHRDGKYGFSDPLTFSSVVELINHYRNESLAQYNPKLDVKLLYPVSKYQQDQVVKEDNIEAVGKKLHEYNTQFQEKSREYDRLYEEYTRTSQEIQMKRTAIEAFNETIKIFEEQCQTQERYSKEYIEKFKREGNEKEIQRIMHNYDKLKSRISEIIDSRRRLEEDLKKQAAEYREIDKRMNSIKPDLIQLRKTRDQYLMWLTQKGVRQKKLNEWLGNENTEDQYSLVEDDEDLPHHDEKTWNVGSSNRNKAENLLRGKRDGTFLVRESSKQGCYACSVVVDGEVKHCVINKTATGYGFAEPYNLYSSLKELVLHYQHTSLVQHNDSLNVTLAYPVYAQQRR

One may read the IC50 as the point on the concentration scale where inhibition reaches its midpoint. Usually logD stands for lipophilicity at a set pH, counting ionised and neutral species. Read a high logD as a more lipophilic compound. Turning to `C[C@@H]1CN(c2nc(-c3cnn(C)c3)cnc2C#N)CCN1C(=O)C1CC1`, the IC50 in data set [1] turned out to be 737 nM; in data set [8], 185 nM. Moreover, the Ratio IC50 in data set [2], in data set [4] and in [6] was greater than 67 each time. The CLint scaled in data set [3] amounted to 39 mL/min/kg; in data set [7] it was 50 mL/min/kg. The molecule also returned a logD in data set [5] of 1.9.
Take `C[C@@H]1C[C@H]1C(=O)N1CCN(c2nc(-c3cnn(C)c3)ncc2C#N)C[C@H]1C`: the half-inhibitory concentration (IC50) was 187 nM in [1] and 32 nM in [8]. Also, the Ratio IC50 in data set [2], in data set [4] and in [6] was greater than 394 in each case. The results for the CLint scaled in data set [3] and in data set [7] were 54 mL/min/kg and less than 16 mL/min/kg, respectively. Also, the logD in [5] came to 1.9.
On to `CC1CC1C(=O)N1CCN(c2nc(-c3cnn(C)c3)ncc2C#N)C[C@H]1C` (mixture of isomers), for which the values for the IC50 in [1] and in data set [8] were 557 nM and 79 nM, respectively. Also, the Ratio IC50 in data set [2] was greater than 159; in data set [4] it was greater than 159; in data set [6] it was 159. Besides, the CLint scaled is less than 36 mL/min/kg in [3] and less than 16 mL/min/kg in data set [7]. The log distribution coefficient (logD) in [5] worked out at 2.
On to `C[C@@H]1CN(c2nc(-c3cnn(C)c3)ncc2C#N)CCN1C(=O)C1CC1`, for which the 50% inhibitory concentration (IC50) in [1] amounted to 329 nM; in data set [8], 108 nM. Further, the Ratio IC50 in data set [2], in data set [4] and in [6] was greater than 116 in each case. The CLint scaled in [3] was less than 36 mL/min/kg; in [7], 21 mL/min/kg. The same molecule gave a pH-dependent lipophilicity (logD) in [5] of 1.5.
The term Vd denotes a proportionality between amount in the body and measured concentration, not a real space. As a reminder, the half-life is the time in which the quantity being followed falls by half. A word on the clearance: it is the volume of plasma or blood freed of the substance per unit of time. Low readings indicate inefficient removal, high ones efficient removal. With `N#Cc1cnc(-c2cccnc2)nc1N1C[C@@H]2C[C@H]1CN2c1cccc(F)c1`, the CLint scaled turned out to be 234 mL/min/kg in data set [9] and 69 mL/min/kg in data set [13]. Also, the Ratio IC50 in data set [2], in [4] and in [6] was greater than 27 throughout. Further, the volume of distribution (Vd) in data set [10] amounted to 3.6 L/kg. In [5], this molecule returned a logD of 3.43. Moreover, the half-life in data set [11] is 36 min. The molecule further came in with a clearance in [12] of 90 mL/min/kg. The concentration for half-maximal inhibition (IC50) in data set [8] was 364 nM.
In the case of `C[C@@H]1CN(c2ncc(C#N)c(-c3cnn(C)c3)n2)CCN1C(=O)C1CC1`, the half-maximal inhibitory concentration (IC50) in data set [1] turned out to be 764 nM; in data set [8], 21 nM. The values for the Ratio IC50 in data set [2], in data set [4] and in data set [6] were greater than 583, greater than 583 and 764, respectively. Further, the CLint scaled in [3] was 39 mL/min/kg; in data set [7], less than 16 mL/min/kg. In [5], the pH-dependent lipophilicity (logD) came to 2.
Consider `Cn1cc(-c2ncc(C#N)c(N3C[C@@H]4C[C@H]3CN4c3cccc(F)c3)n2)cn1`, for which the figures for the IC50 in [1] and in [8] were 2960 nM and 31 nM, respectively. Besides, the CL free in [14] amounted to 4857 mL/min/kg. For the same molecule, the Ratio IC50 in data set [2] was 308; in [4], 160; in [6] it was greater than 407. The molecule also came in with a distribution volume (Vd) in [10] of 4.7 L/kg. Further, the CLint scaled in data set [3] is 1080 mL/min/kg; in data set [7], 76 mL/min/kg. Further, the fraction unbound in data set [15] is 0.014. In [5], this molecule returned a logD of 3.1. The same molecule gave a half-life in data set [11] of 66 min. The molecule further gave a clearance in data set [12] of 68 mL/min/kg.
Take `Cn1cc(-c2ncc(C#N)c(N3C[C@@H]4C[C@H]3CN4C(=O)C3CC3)n2)cn1`: the 50% inhibitory concentration (IC50) in [1] is 258 nM; in data set [8], 161 nM. This molecule gave a CL free in data set [14] of 85 mL/min/kg. Further, the Ratio IC50 in [2] is 78; in data set [4], greater than 78; in data set [6] it was 78. The Vd in [10] came out at 0.9 L/kg. Also, the CLint scaled is less than 36 mL/min/kg in data set [3] and less than 16 mL/min/kg in data set [7]. Moreover, in data set [15], the fraction unbound was 0.54. The logD in data set [5] was 1.1. The same molecule gave a half-life in data set [11] of 12 min. In addition, the clearance in [12] is 46 mL/min/kg.
As for `Cn1cc(-c2ncc(C#N)c(N3C[C@@H]4C[C@H]3CN4CC3CC3)n2)cn1`, the 50% inhibitory concentration (IC50) is 6970 nM in data set [1] and 1430 nM in data set [8]. For the same molecule, the CLint scaled is 158 mL/min/kg in data set [3] and less than 16 mL/min/kg in data set [7]. The logD in data set [5] was found to be 1.5.
For the molecule `C[C@@H]1CN(c2nc(-c3cnn(C)c3)ncc2C#N)CCN1C(=O)C1CCC1`, the IC50 in data set [1] was 1560 nM; in data set [8] it was 374 nM. The Ratio IC50 in data set [2], in data set [4] and in data set [6] was greater than 33 in each case. In addition, the CLint scaled in [3] is less than 36 mL/min/kg; in data set [7], less than 16 mL/min/kg. For the same molecule, the logD in data set [5] amounted to 2.
On to `C[C@@H]1CN(c2cnc(C#N)c(-c3cnn(C)c3)n2)CCN1C(=O)C1CC1`, for which the half-inhibitory concentration (IC50) was 219 nM in data set [1] and 33 nM in [8]. For the same molecule, the Ratio IC50 in [2], in [4] and in [6] was greater than 384 throughout. For the same molecule, the CLint scaled in data set [3] is less than 36 mL/min/kg; in data set [7], less than 16 mL/min/kg. The pH-dependent lipophilicity (logD) in data set [5] came out at 1.8.
Regarding `CCC(=O)N1CCN(c2nc(-c3cnn(C)c3)ncc2C#N)C[C@H]1C`, the IC50 was 2320 nM in data set [1] and 263 nM in data set [8]. For the same molecule, the Ratio IC50 in data set [2], in data set [4] and in data set [6] was greater than 48 each time. The CLint scaled is less than 36 mL/min/kg in [3] and less than 16 mL/min/kg in [7]. Also, the logD in data set [5] stood at 1.4.
For `C[C@@H]1CN(c2nc(-c3cnn(C)c3)ncc2C#N)CCN1C(=O)C1(C)CC1`, the half-maximal inhibitory concentration (IC50) in data set [1] was 5710 nM; in data set [8], 1050 nM. In addition, the Ratio IC50 in [2], in [4] and in data set [6] was greater than 12 throughout. For the same molecule, the CLint scaled was less than 36 mL/min/kg in data set [3] and less than 16 mL/min/kg in [7]. The molecule also displayed a pH-dependent lipophilicity (logD) in data set [5] of 1.7.
As to `Cn1cc(-c2ncc(C#N)c(N3C[C@@H]4C[C@H]3CN4S(=O)(=O)C3CC3)n2)cn1`, the IC50 in data set [1] is 4120 nM; in [8], 1190 nM. The Ratio IC50 in [2] is 10; in [4], greater than 10; in data set [6] it was 10. For the same molecule, the CLint scaled is less than 36 mL/min/kg in data set [3] and less than 16 mL/min/kg in data set [7]. Moreover, the pH-dependent lipophilicity (logD) in data set [5] worked out at 1.6.
